How the values were obtained:
prostate cancer = assay: Case 4: person with prostate cancer on Phase I diet and antifungals; type: in vivo, man; conditions: one patient; Phase I diet 2 months, nystatin 2 months, then UGN, Caprylic acid, GSE; PSA closer to 4.0 at cancer diagnosis
From the text: 4. A person was diagnosed as having prostrate cancer. UTSW study for BPH ×5-6 yrs. Biopsy prior and post program. Normal PSA! At post-study diagnosis, cancer was found: October 2001. They moved to OKC and started watching Doug's show.
Past history includes heavy use of antibiotics, recurrently for allergies, sinusitis.
Went to MD Anderson—found cancer in different place of the prostate, but Cancer was confirmed nonetheless. Gleason stage 7.
Started on Phase I for 2 months (had severe die-off ×4 days—including fever), nystatin thereafter ×2 months. Cont'd diet for 4 months and stays on a variant of the diet. On UGN, Caprylic acid, GSE now ×3 months. Saw John Hogan, D.O. (OKC). Past 2 yrs: PSA now is 1.1. Was closer to 4.0 at the time of cancer diagnosis.
F/U Ultrasound: cannot find any tumors. Whole body scans have been negative.

leukemia = conditions: human, in vivo; cited from earlier work
[1] = tested on: prostate, lung and colorectal cancer; conditions: selenium supplements, humans; cited from earlier work
[2] = tested on: p53 tumor suppressor gene; conditions: cited from earlier work
[3] = in vivo; cited from earlier work
Candida albicans = conditions: cited from earlier work
Saccharomyces cerevisiae = Saccharomyces cerevisiae (brewer's/baker's yeast); cited from earlier work
PSA levels = conditions: men with prostate cancer; cited from earlier work
[4] = tested on: primary human urothelial cells; conditions: cited from earlier work

Work on `C[C@@H]1[C@H](O)[C@@H](C)/C=C/C=C/CC/C=C/C=C/C=C/C=C/C(O[C@H]2O[C@H](C)[C@@H](O)[C@H](N)[C@@H]2O)CC2O[C@](O)(CC(O)C(O)CCC(O)CC(O)CC(O)CC(=O)O[C@H]1C)CC(O)C2C(=O)O` (stereo partly shown) [nystatin] yielded a PSA (prostate cancer) of 1.1.

For `OC(Cn1cncn1)(Cn1cncn1)c1ccc(F)cc1F` [fluconazole], the “effect on (secondary) fungal infections” value (leukemia) is listed as “cured their (secondary) fungal infections” and the “effect on cancer (leukemia)” value (leukemia) is listed as “successfully treated their cancer”.

In the case of `[Se]` [Selenium], the “lower risk of developing cancer” value [1] is given as 37% and the “lower risk of dying from the cancer” value [1] is given as 50%.

In the case of aflatoxin B1, the “mutation of p53 tumor suppressor gene” value [2] is listed as “induces the transversion of G→T in codon 249” and the “liver carcinoma after exposure” value [3] is listed as “develop liver carcinoma”.

For `CC/C(=C(\c1ccccc1)c1ccc(OCCN(C)C)cc1)c1ccccc1` [Tamoxifen], the antifungal action (Candida albicans) is given as “marked antifungal action” and the antifungal action (Saccharomyces cerevisiae) is given as “marked antifungal action”.

In the case of `CC(=O)N1CCN(c2ccc(OCC3COC(Cn4ccnc4)(c4ccc(Cl)cc4Cl)O3)cc2)CC1` (stereo not shown) [ketoconazole], the “effect on PSA levels” value (PSA levels) is given as “lowered PSA levels”.

In the case of `C[C@@H]1[C@H](O)[C@@H](C)/C=C/C=C/C=C/C=C/C=C/C=C/C=C/[C@H](O[C@@H]2O[C@H](C)[C@@H](O)[C@H](N)[C@@H]2O)C[C@@H]2O[C@](O)(C[C@@H](O)C[C@@H](O)[C@H](O)CC[C@@H](O)C[C@@H](O)CC(=O)O[C@H]1C)C[C@H](O)[C@H]2C(=O)O` [amphotericin B], the “effect on (secondary) fungal infections” value (leukemia) is given as “cured their (secondary) fungal infections” and the “effect on cancer (leukemia)” value (leukemia) is given as “successfully treated their cancer”.

For `C[C@@H]1Cc2c(Cl)cc(C(=O)N[C@@H](Cc3ccccc3)C(=O)O)c(O)c2C(=O)O1` [ochratoxin A], the “unscheduled DNA synthesis” value [4] is given as “Induction of unscheduled DNA synthesis”.

— patent US20050049207A1 (priority 2003, published 2005)
